{"source": "patent US9815788B2", "about": "“Anti-angiogenic compounds” (University College Dublin National University of Ireland, …, priority 2012, dated 2017)", "key": {"[1]": {"test_system": "human SW480 colorectal cancer cells", "assay": "Proliferation / cell number of SW480 cells (crystal violet)", "assay_type": "cell-based", "conditions": "10 μM, by 96 hours", "experimental": "Cells were maintained in RPMI media supplemented with 10% foetal calf serum, penicillin (100 U/ml), streptomycin (100 μg/ml) and amphotericin B (4 μg/ml). A total of 5,000 cells were seeded per well in 96 well plates and left to incubate for 24 hours. The cells were washed in PBS and the media was replaced with solutions containing 10 μM of 5-fluorouracil (5FU), 4H, 11A or 11C. […] At each designated time point, the media was disposed and the cells washed with PBS. The cells were fixed with 1% glutaraldehyde for 20 minutes and then stained with crystal violet for 30 minutes. The plates were blotted and dried overnight. The cells were resuspended with 1% TritonX-100 and shaken for 15 minutes. The absorbance was read on a spectrophotometer at 550 nm."}, "[2]": {"test_system": "zebrafish intersegmental vessels", "assay": "Quantification of intersegmental vessel number in zebrafish", "assay_type": "in vivo", "conditions": "for inhibition of developmental angiogenesis of intersegmental vessels (number of intersegmental vessels): 10 μM, from 6 hpf; for dose-dependent inhibition of development of intersegmental vessels: decreasing doses 10, 7.5, 5 and/or 1 μM; for inhibition of the number of intersegmental vessels that develop: 5 μM", "experimental": "[…] Larvae were manually dechorionated, euthanised, and fixed in 4% PFA at 4° C. overnight before analysis. The larvae were then washed with PBS and transferred to depression slides for observation under epi-fluorescence in an Olympus SZX16 fluorescent microscope. The number of intersegmental vessels was counted and the average number was graphed for each drug.\nLarvae were manually dechorionated, euthanised, and fixed in 4% PFA at 4° C. overnight before analysis. The larvae were then washed with PBS and transferred to depression slides for observation under epi-fluorescence in an Olympus SZX16 fluorescent microscope. The number of intersegmental vessels was counted and the average number was graphed for each drug."}, "[3]": {"test_system": "explants cultures of human colorectal cancers", "assay": "Angiogenic/inflammatory factor secretion from human colorectal tumour explants (ELISA, multiplex)", "assay_type": "cell-based", "conditions": "10 μM, 72 hours; n=40 patients", "experimental": "Human colorectal tumour samples were taken directly from the pathology laboratory after surgery once adequate material was taken for diagnostic testing. The tumour samples were washed and stored in DMSO/tumour conditioning media (TCM). The samples were snap-frozen in liquid nitrogen and stored at −80° C. until compound testing was performed. Prior to compound testing, the tumours were thawed and incubated in fresh TCM for 24 hours. The explants were then treated with 4H, 11A and 11C at […] concentrations for 72 hours. The TCM solutions were collected and stored at −20° C. and the remaining tumour explants were snap-frozen in liquid nitrogen and stored at −80° C. Proteins were extracted from the explants using a nuclear RIPA buffer containing PMSF, sodium orthovandate and protease inhibitors. The explants were homogenised in a PreCellys™ machine. The total protein contents were determined from the resulting lysates using the BCA assay™. […] The secretion of angiogenic cytokines was quantified using sandwich ELISA (DuoSet, R&D) for VEGF, ENA-78, MCP-1 and GROα and a multiplex assay (MSD) was used for the inflammatory cytokines: IL-13, TNF, IL-6 and IL-8. The secretion data were normalised according to the tumour sample's protein content."}, "[4]": {"test_system": "zebrafish hyaloid vasculature", "assay": "Quantification of primary hyaloid vasculature branch number in Tg(fli1:EGFP) zebrafish", "assay_type": "in vivo", "conditions": "for inhibition of developmental angiogenesis of the hyaloid vasculature (number of primary hyaloid vessels): typically 10 μM or 5 μM, from 24 hpf, vs DMSO control", "experimental": "(§1) All experiments were carried out under ethical approval granted by the UCD animal research ethics committee. Tg(fli1:EGFP) zebrafish were maintained according to standard procedures on a 14 hr light/10 hr dark cycle at 28° C. Embryos were obtained by natural spawning and developmental stages established by time and morphological criteria. […] Larvae were euthanised, and fixed in 4% PFA at 4° C. overnight before analysis.\nOverall patterning of the vasculature (fin, gut and intersegmental vessels) was examined for abnormalities. Right lenses were dissected from the larvae and transferred to depression slides for observation under epi-fluorescence in the Olympus SZX16. Patterning of the hyaloid vessels on the treated larval lenses was compared to DMSO controls and the archetypal pattern previously described (Alvarez et al., 2007; Alvarez et al., 2009).\nas §1, with “analysis. Lenses were dissected from the larvae and transferred to depression slides for observation under epi-fluorescence in the Olympus SZX16. Patterning of the hyaloid vessels on the treated larval lenses was compared to DMSO controls and the archetypal pattern previously described (Alvarez et al., 2007; Alvarez et al., 2009).” for “analysis.”"}, "[5]": {"test_system": "OE33P radio-sensitive oesophageal adenocarcinoma cells", "assay": "Cell number after 24 hours drug treatment (crystal violet absorbance), OE33P", "assay_type": "cell-based, human", "conditions": "10 μM", "experimental": "(§2) OE33P radio-sensitive and OE33R radio-resistant oesophageal adenocarcinoma cells were used to test the effects of the compounds 11B HCl, […], 11B CC16 HCl, 11B 471 and 11B 268 on cell number. Cells were maintained in RPMI media supplemented with 10% foetal calf serum, penicillin (100 U/ml) and streptomycin (100 gig/ml). A total of 11.000 or 13,000 cells, in 100 μl media, were seeded per well in 24 well plates and left to incubate for 24 hours, with an additional 150 μl media added after 5 hours. The media was replaced with solutions containing 10 μM of 11B HCl, 11B CC11 HCl, 11B CC16 HCl, 11B 471, 11B 268 or fresh media as a control. Each drug had 6 replicates. After 24 hours of treatment, the cells were fixed with 1% glutaraldehyde for 15 minutes and then stained with crystal violet for 30 minutes. The plates were blotted and dried overnight. The cells were resuspended with 1% TritonX-100 and shaken for 15 minutes. The absorbance was read on a spectrophotometer at 590 nm.\n(§3) OE33P radiosensitive and OE33R radioresistant cells were used to test the effects of the compound 11B_Z_HCl on toxicity. Cells were maintained in RPMI media supplemented with 10% foetal calf serum, penicillin (100 U/ml) and streptomycin (100 μg/ml). A total of 11,000 cells, in 100 μl media, were seeded per well in 24 well plates and left to incubate for 24 hours, with an additional 150 μl media added after 5 hours. The media was replaced with solutions containing 10 μM of 11B_Z_HCl or fresh media as a control. Each treatment had 6 replicates. After 24 hours of treatment, the cells were fixed with 1% glutaraldehyde for 15 minutes and then stained with crystal violet for 30 minutes. The plates were blotted and dried overnight. The cells were resuspended with 1% TritonX-100 and shaken for 15 minutes. The absorbance was read on a spectrophotometer at 590 nm."}, "[6]": {"test_system": "OE33R radio-resistant oesophageal adenocarcinoma cells", "assay": "Cell number after 24 hours drug treatment (crystal violet absorbance), OE33R", "assay_type": "cell-based, human", "conditions": "10 μM", "experimental": "as §2, §3"}, "[7]": {"test_system": "OE33P radiosensitive oesophageal adenocarcinoma cells", "assay": "Quantification of oxidative phosphorylation (OCR, Seahorse), OE33P", "assay_type": "cell-based, human", "conditions": "10 μM, 24 hours", "experimental": "OE33P radiosensitive and OE33R radio-resistant oesophageal adenocarcinoma cells were used to test the effects of the compounds 11B HCl, 11B CC11 HCl, 11B CC16 HCl, 11B 471 and 11B 268 on oxidative phosphorylation. Cells were maintained in RPMI media supplemented with 10% foetal calf serum, penicillin (100 U/ml) and streptomycin (100 μg/ml). A total of 11,000-13,000 cells, in 100 μl media, were seeded per well in 24 well plates and left to incubate for 24 hours, with an additional 150 μl media added after 5 hours. The media was replaced with solutions containing 10 μM of 11B HCl, 11B CC11 HCl, 11B CC16 HCl, 11B 471, 11B 268 or fresh media as a control. Each drug had 6 replicates. After 24 hours of treatment, media was replaced with modified DMEM supplemented with 0.5 mM glucose. Rates of oxidative phosphorylation were determined using Seahorse Biosciences metabolism technology. The media was disposed and the cells washed with PBS. The cells were fixed with 1% glutaraldehyde for 15 minutes and then stained with crystal violet for 30 minutes. The plates were blotted and dried overnight. The cells were resuspended with 1% TritonX-100 and shaken for 15 minutes. The absorbance was read on a spectrophotometer at 595 nm. Rates of oxidative phosphorylation were then normalised to cell number.\nOE33P radiosensitive and OE33R radioresistant oesophageal adenocarcinoma cells were used to test the effects of the compound 11B_Z_HCl on oxidative phosphorylation. Cells were maintained in RPMI media supplemented with 10%0/foetal calf serum, penicillin […]) and streptomycin (100 μg/ml). A total of 11,000 cells, in 100 μl media, were seeded per well in 24 well plates and left to incubate for 24 hours, with an additional 150 μl media added after 5 hours. The media was replaced with solutions containing 10 μM of 11B_Z_HCl or fresh media as a control. Each treatment had 6 replicates. After 24 hours of treatment, media was replaced with modified DMEM supplemented with 0.5 mM glucose. Rates of oxidative phosphorylation were determined using Seahorse Biosciences metabolism technology. Rates of oxidative phosphorylation were then normalised to cell number."}}, "note": "“Also recorded” adds a separate entry of the source.", "data": [{"compound": "O=c1[nH]cc(F)c(=O)[nH]1", "note": "[5-fluorouracil, reference compound]", "values": [{"measurement": "cell number, % of the control", "setting": "[1]", "result": 60, "unit": "%"}]}, {"compound": "Cc1ccc(N2C(=O)CC(NNC(=O)c3ccccc3)C2=O)c(C)c1", "note": "(stereo not drawn) [Compound 4H, N′-[1-(2,4-dimethylphenyl)-2,5-dioxo-3-pyrrolidinyl]benzohydrazide]", "values": [{"measurement": "inhibition of developmental angiogenesis of intersegmental vessels (number of intersegmental vessels)", "setting": "[2]", "result": "significant inhibition; also recorded: inhibit developmental angiogenesis of zebrafish intersegmental vessels in a statistically significant manner"}, {"measurement": "dose-dependent inhibition of development of intersegmental vessels", "setting": "[2]", "result": "dose-dependent effect"}, {"measurement": "cell number compared to control", "setting": "[1]", "result": "did not significantly reduce cell number"}, {"measurement": "levels of ENA-78 secreted", "setting": "[3]", "result": "significantly reduced"}, {"measurement": "levels of GRO-α secreted", "setting": "[3]", "result": "significantly reduced"}, {"measurement": "levels of IL-6 secreted", "setting": "[3]", "result": "significantly reduced"}, {"measurement": "levels of IL-8 secreted", "setting": "[3]", "result": "significantly reduced"}, {"measurement": "levels of MCP-1 secreted", "setting": "[3]", "result": "significantly reduced; also recorded: significant effects"}, {"measurement": "levels of VEGF secreted", "setting": "[3]", "result": "significantly reduced; also recorded: significant effects"}]}, {"compound": "COc1ccccc1C=Cc1ccc2ccccc2n1", "note": "[Compound 11B-268, 2-(2-(2-Methoxyphenyl)vinyl)quinoline]", "values": [{"measurement": "dose-dependent inhibition of development of hyaloid vessels", "setting": "[4]; decreasing doses 20, 10, 7.5, 5, 2.5, 1 and/or 0.5 μM", "result": "dose-dependent effect; also recorded: inhibit developmental angiogenesis of zebrafish hyaloid vasculature in a dose-dependent statistically significant manner"}, {"measurement": "inhibition of developmental angiogenesis of the hyaloid vasculature (number of primary hyaloid vessels)", "setting": "[4]", "result": "inhibit developmental angiogenesis of the zebrafish hyaloid vasculature in a statistically significant manner"}, {"measurement": "cell number, measured by % absorbance", "setting": "[5]", "result": "did not significantly reduce cell number"}, {"measurement": "cell number, measured by % absorbance", "setting": "[6]", "result": "did not significantly reduce cell number"}, {"measurement": "oxygen consumption rate (OCR), a measure of oxidative phosphorylation", "setting": "[7]", "result": "significantly reduce"}]}, {"compound": "O=C(C=Cc1ccc2c(c1)OCO2)NCc1cccnc1", "note": "[Compound 11C]", "values": [{"measurement": "inhibition of the number of primary hyaloid vessels that develop", "setting": "[4]; 10 μM, n>20", "result": "significant inhibition"}, {"measurement": "inhibition of developmental angiogenesis of the hyaloid vasculature (number of primary hyaloid vessels)", "setting": "[4]", "result": "inhibit developmental angiogenesis of the zebrafish hyaloid vasculature in a statistically significant manner"}, {"measurement": "inhibition of the number of intersegmental vessels that develop", "setting": "[2]", "result": "significant inhibition"}, {"measurement": "inhibition of developmental angiogenesis of intersegmental vessels (number of intersegmental vessels)", "setting": "[2]", "result": "significant inhibition; also recorded: inhibit developmental angiogenesis of zebrafish intersegmental vessels in a statistically significant manner"}, {"measurement": "dose-dependent inhibition of development of intersegmental vessels", "setting": "[2]", "result": "dose-dependent effect"}, {"measurement": "cell number compared to control", "setting": "[1]", "result": "did not significantly reduce cell number"}, {"measurement": "levels of ENA-78 secreted", "setting": "[3]", "result": "significantly reduced"}, {"measurement": "levels of GRO-α secreted", "setting": "[3]", "result": "significantly reduced"}, {"measurement": "levels of IL-6 secreted", "setting": "[3]", "result": "significantly reduced"}, {"measurement": "levels of IL-8 secreted", "setting": "[3]", "result": "significantly reduced"}, {"measurement": "levels of MCP-1 secreted", "setting": "[3]", "result": "significantly reduced; also recorded: significant effects"}, {"measurement": "levels of TNFα secreted", "setting": "[3]", "result": "significantly reduced"}, {"measurement": "levels of VEGF secreted", "setting": "[3]", "result": "significant effects"}]}, {"compound": "(5-bromo-N′-[2-(trifluromethyl)benzylidene]-2-furohydrazide) [Compound 11A]", "values": [{"measurement": "inhibition of the number of intersegmental vessels that develop", "setting": "[2]", "result": "significant inhibition"}, {"measurement": "inhibition of developmental angiogenesis of intersegmental vessels (number of intersegmental vessels)", "setting": "[2]", "result": "significant inhibition; also recorded: inhibit developmental angiogenesis of zebrafish intersegmental vessels in a statistically significant manner"}, {"measurement": "dose-dependent inhibition of development of intersegmental vessels", "setting": "[2]", "result": "dose-dependent effect"}, {"measurement": "cell number compared to control", "setting": "[1]", "result": "did not significantly reduce cell number"}, {"measurement": "levels of ENA-78 secreted", "setting": "[3]", "result": "significantly reduced"}, {"measurement": "levels of GRO-α secreted", "setting": "[3]", "result": "significantly reduced"}, {"measurement": "levels of IL-1β secreted (printed IL-13, IL-1)", "setting": "[3]", "result": "significantly reduced"}, {"measurement": "levels of IL-8 secreted", "setting": "[3]", "result": "significantly reduced"}, {"measurement": "levels of MCP-1 secreted", "setting": "[3]", "result": "significantly reduced; also recorded: significant effects"}, {"measurement": "levels of TNFα secreted", "setting": "[3]", "result": "significantly reduced"}, {"measurement": "levels of VEGF secreted", "setting": "[3]", "result": "significantly reduced; also recorded: significant effects"}]}]}
